# Columns and labels:
# [1] = tested on: OCI-AML2 human leukemia cells; format: in vivo, SCID mice
# Protocol: FIG. 3. Tigecycline has anti-leukemia activity in vivo. (A, B) Human leukemia (OCI-AML2) were injected subcutaneously into the flank of SCID mice. Seven days after injection, once tumors were palpable, mice were treated with tigecycline (50 mg/kg or 100 mg/kg twice daily by i.p. injection) or vehicle control (n=10 per group). Fourteen days after injection of cells, mice were sacrificed, tumors excised and the volume and mass of the tumors were measured. The tumor mass and the mean volume+SD are shown. Differences in tumor volume and mass were analyzed by an unpaired t-test: * p<0.001. (C) Tumours from two control mice, and three tigecycline-treated mice were excised after 5 days of treatment and total proteins were extracted and analyzed by western blotting for Cox-1, Cox-2, Cox-4, and tubulin. (D) Primary cells from three AML patients were injected intra-femorally into the right femur of female sub-lethally irradiated NOD/SCID mice. Three weeks after injection mice were treated with tigecycline (100 mg/kg by i.p. injection daily) or vehicle control (n=10 per group) for three weeks. Following treatment, human leukemia cell engraftment in the injected right femur was measured by FACS analysis for human CD45^+CD19^−CD33^+ cells. Data represent mean±SD of engrafted human cells. Cells from one patient experiment were used to assess secondary engraftment in a second generation of NOD/SCID mice. Equal numbers of viable leukemia cells from bone marrow of control and tigecycline treated mice were injected into irradiated NOD/SCID mice, which were not treated with tigecycline. Six weeks later, human leukemia cell engraftment in the injected right femur was measured by FACS analysis for human CD45^+CD19^−CD33^+ cells. (* p<0.005, Student's t-test).
# OCI-AML2 human leukemia cells (1×10^6) were injected subcutaneously into the flanks of SCID mice (Ontario Cancer Institute, Toronto, ON). Seven days after injection, once tumours were palpable, mice were treated with tigecycline twice daily (50 mg/kg or 100 mg/kg by i.p. injection) or vehicle control (n=10 per group) for 14 days. Tumor volume (tumor length×width^2×0.5236) was measured three times a week using calipers. Twenty-one days after injection of cells, mice were sacrificed, tumors excised and the volume and mass of the tumors were measured.
# Given the effects of tigecycline as a potential anti-leukemia agent, tigecycline in mouse models of leukemia was evaluated. To evaluate the anti-tumor efficacy of tigecycline in vivo, human OCI-AML2 leukemia cells were injected into the flank of SCID mice. […] Tumor volume and mass were measured over time (FIGS. 3A, B). […]
# [2] = tested on: primary human AML cells; format: in vivo, NOD-SCID mice; settings: 100 mg/kg i.p. daily for three weeks, vs vehicle control
# Protocol: FIG. 3. Tigecycline has anti-leukemia activity in vivo. (A, B) Human leukemia (OCI-AML2) were injected subcutaneously into the flank of SCID mice. Seven days after injection, once tumors were palpable, mice were treated with tigecycline (50 mg/kg or 100 mg/kg twice daily by i.p. injection) or vehicle control (n=10 per group). Fourteen days after injection of cells, mice were sacrificed, tumors excised and the volume and mass of the tumors were measured. The tumor mass and the mean volume+SD are shown. Differences in tumor volume and mass were analyzed by an unpaired t-test: * p<0.001. (C) Tumours from two control mice, and three tigecycline-treated mice were excised after 5 days of treatment and total proteins were extracted and analyzed by western blotting for Cox-1, Cox-2, Cox-4, and tubulin. […] Following treatment, human leukemia cell engraftment in the injected right femur was measured by FACS analysis for human CD45^+CD19^−CD33^+ cells. […] Six weeks later, human leukemia cell engraftment in the injected right femur was measured by FACS analysis for human CD45^+CD19^−CD33^+ cells. […]
# To assess tigecycline in mouse models of primary AML, primary human AML cells were isolated form a fresh peripheral blood sample from a patient with AML. A frozen aliquot was thawed, counted and resuspended in PBS. […]
# [3] = 50 mg/kg or 100 mg/kg twice daily i.p. for 14 days, p<0.001
structure (smiles),measurement,setting,value
CN(C)c1cc(NC(=O)CNC(C)(C)C)c(O)c2c1C[C@H]1C[C@H]3[C@H](N(C)C)C(O)=C(C(N)=O)C(=O)[C@@]3(O)C(O)=C1C2=O [tigecycline],expression of cytochrome C oxidase subunits in tumours,"[1]; 50 mg/kg bid for 5 days, western blotting",preferential decreased expression of mitochondrially translated subunits Cox-1 and Cox-2
same,decrease in tumor mass vs vehicle control,[1]; [3],up to 70%
same,decrease in tumor volume vs vehicle control,[1]; [3],up to 70%
same,toxicity in xenograft mice,"[1]; mouse, in vivo",No evidence of toxicity
same,engraftment of human AML cells (CD45+CD33+CD19-) in marrow,[2],significantly decreased
